For this assay, the target named is T1, rat M1 receptor (Rattus norvegicus, UniProt P08482).
T1 construct: host or cells: CHO-K1
T1 sequence (P08482 1-460): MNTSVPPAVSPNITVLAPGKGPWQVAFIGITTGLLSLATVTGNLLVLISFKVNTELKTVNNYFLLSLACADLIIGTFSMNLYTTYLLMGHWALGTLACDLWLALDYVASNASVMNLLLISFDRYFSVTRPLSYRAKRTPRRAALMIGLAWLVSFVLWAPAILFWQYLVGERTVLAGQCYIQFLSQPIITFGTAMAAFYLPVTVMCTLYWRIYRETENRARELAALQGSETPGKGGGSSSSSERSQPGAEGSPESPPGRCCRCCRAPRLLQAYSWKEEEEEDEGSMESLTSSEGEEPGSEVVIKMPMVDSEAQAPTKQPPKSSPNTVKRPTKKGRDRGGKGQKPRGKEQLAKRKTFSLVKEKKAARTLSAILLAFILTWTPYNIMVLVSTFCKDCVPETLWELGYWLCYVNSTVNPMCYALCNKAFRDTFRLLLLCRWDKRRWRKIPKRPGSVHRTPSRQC
As to the kind of experiment: Calcium mobilization assay, CHO-K1 cells stably expressing rat M1 (low throughput, Flexstation II). The class given is cell-based. As to conditions: for Emax: CHO-K1, read-out: Efficacy (% Max ACh). The text has this:
Chinese hamster ovary (CHO-K1) cells stably expressing rat (r)M1 were purchased from the American Type Culture Collection and cultured according to their indicated protocol. CHO cells stably expressing human (h)M2, hM3, and hM5 were described previously (Levey et al., 1991); hM1 and hM4 cDNAs were purchased from Missouri S&T cDNA Resource; rM4 cDNA was provided by T. I. Bonner (National Institutes of Health, Bethesda, Md.). hM1, hM4, and rM4 cDNAs were used to stably transfect CHO-K1 cells purchased from the American Type Culture Collection using Lipofectamine2000. To make stable hM2, hM4 and rM4 cell lines for use in calcium mobilization assays, these cells also were stably transfected with a chimeric G-protein (Gqi5) (provided by B. R. Conklin, University of California, San Francisco) using Lipofectamine 2000. rM1, hM3, and hM5 cells were grown in Ham's F-12 medium containing 10% heat-inactivated fetal bovine serum (FBS), 20 mM HEPES, and 50 μg/mL G418 sulfate. hM2-Gqi5 and hM4-Gqi5 cells were grown in the same medium also containing 500 μg/mL Hygromycin B. Stable rM4-Gqi5 cells were grown in DMEM containing 10% heat-inactivated FBS, 20 mM HEPES, 400 μg/mL G418 sulfate, and 500 μg/mL Hygromycin B. The rat M1 Y381A orthosteric mutant receptor cDNA was generated using the Quik-Change site-directed mutagenesis kit (Stratagene) and verified by sequencing. CHO-K1 cells were stably transfected with this cDNA using Lipofectamine2000 and screened for expression based on calcium mobilization in response to the allosteric M1 agonist N-desmethylclozapine.
For low throughput measurement of agonist-evoked increases in intracellular calcium, CHO-K1 cells stably expressing muscarinic receptors were plated in 100 μL of growth medium at 5×10^4 (rM1, hM3, and hM5) or 6×10^4 cells per well (rM1 Y381A, hM2, and rM4) in Costar 96-well black-walled, tissue culture (TC)-treated, clear-bottom plates (Fisher). Cells were incubated overnight at 37° C. and 5% CO2. The next day, medium was removed from the cells, and they were incubated with 50 μL of 2 μM Fluo-4/acetoxymethyl ester (Invitrogen, Carlsbad, Calif.) prepared as a 2.3 mM stock in DMSO and mixed in a 1:1 ratio with 10% (w/v) Pluronic F-127 and diluted in assay buffer [HBSS (Invitrogen) supplemented with 20 mM HEPES and 2.5 mM probenecid, pH 7.4] for 1 h at 37° C. and 5% CO2. Dye was removed and replaced with 50 μL of assay buffer. For calcium fluorescence measurements, CRCs of compounds (50 μl, 2×) were added 19 s after the beginning of data collection via a Flexstation II (Molecular Devices, Sunnyvale, Calif.). Fluorescence imaging continued for a total of 130 s acquisition time using an excitation wavelength of 488 nm, an emission wavelength of 525 nm, and a cutoff wavelength of 515 nm. All of the peaks of the calcium response were normalized to the response to a maximally effective concentration of ACh (ECmax). These normalized peak calcium response values were fit using GraphPad Prism version 4.0 to a four-parameter logistic equation to determine EC50 values.
(In general: Calcium assays in cells follow changes in intracellular calcium, usually with a dye or a luminescent sensor.)

[1] abbreviates: rat M1, agonist-evoked calcium mobilization in CHO-K1 cells, read-out: Potency (EC50).

Like-named read-outs stand apart in the source and are kept apart here.

Regarding `CCOC(=O)N1C2CCC1CC(NCCNC(=O)c1c(F)cccc1F)C2` (centres unmarked) [Example 21, ethyl 3-({2-[(2,6-difluorophenyl)formamido]-ethyl}amino)-8-azabicyclo[3.2.1]octane-8-carboxylate], the Emax was 18%. In addition, the concentration giving a half-maximal response (EC50) under setting [1] was found to be 880 nM. In the case of `CCOC(=O)N1C2CCC1CC(NCCNC(=O)c1ccccn1)C2` (centres unmarked) [Example 16, ethyl 3-{[2-(pyridin-2-ylformamido)ethyl]-amino}-8-azabicyclo[3.2.1]octane-8-carboxylate], the Emax came to 22%. For the compound `CCOC(=O)N1C2CCC1CC(NCCNC(=O)c1ccc(Cl)cc1F)C2` (centres unmarked) [Example 17, ethyl 3-({2-[(4-chloro-2-fluorophenyl)formamido]-ethyl}amino)-8-azabicyclo[3.2.1]octane-8-carboxylate], the Emax came to 20%. In the case of `CCOC(=O)N1C2CCC1CC(NCCNC(=O)c1ccc3c(c1)CCO3)C2` (centres unmarked) [Example 12, ethyl 3-{[2-(2,3-dihydro-1-benzofuran-5-ylformamido)ethyl]-amino}-8-azabicyclo[3.2.1]octane-8-carboxylate], the Emax was determined as 31%.

In the case of `CCOC(=O)N1C2CCC1CC(NCCNC(=O)c1cccs1)C2` (centres unmarked) [Example 1, Ethyl 3-(2-(thiophene-2-carboxamido)ethylamino)-8-azabicyclo[3.2.1]octane-8-carboxylate], the EC50 amounted to 74 nM and the Emax amounted to 88%. On to `CCOC(=O)N1C2CCC1CC(NCCNC(=O)c1ccc(F)c(F)c1)C2` (centres unmarked) [Example 15, ethyl 3-({2-[(3,4-difluorophenyl)formamido]-ethyl}amino)-8-azabicyclo[3.2.1]octane-8-carboxylate], for which the Emax was determined as 104%. For the same compound, the EC50 under setting [1] amounted to 122 nM.

Turning to `CCOC(=O)N1C2CCC1CC(NCCNC(=O)c1ccccc1)C2` (centres unmarked) [Example 18, ethyl 3-{[2-(phenylformamido)ethyl]-amino}-8-azabicyclo[3.2.1]octane-8-carboxylate], the EC50 came to 67 nM and the Emax is 103%. Turning to `CCOC(=O)N1C2CCC1CC(NCCNC(=O)c1ccc(F)cc1C(F)(F)F)C2` (centres unmarked) [Example 5, ethyl 3-[(2-{[4-fluoro-2-(trifluoromethyl)phenyl]-formamido}ethyl)-amino]-8-azabicyclo[3.2.1]octane-8-carboxylate], the Emax stood at 39%. Consider `CCOC(=O)N1C2CCC1CC(NCCNC(=O)c1cccc(OC)c1)C2` (centres unmarked) [Example 4, ethyl 3-({2-[(3-methoxy-phenyl)formamido]-ethyl}amino)-8-azabicyclo[3.2.1]octane-8-carboxylate], for which the Emax was 81%. For the same compound, under setting [1], the concentration giving a half-maximal response (EC50) came to 211 nM. The matching figures for `CCOC(=O)N1C2CCC1CC(NCCNC(=O)c1ccccc1Cl)C2` (centres unmarked) [Example 25, ethyl 3-({2-[(2-chlorophenyl)formamido]-ethyl}amino)-8-azabicyclo[3.2.1]octane-8-carboxylate]: 80% and 112 nM. In the case of `CCOC(=O)N1C2CCC1CC(NCCNC(=O)c1ccc(F)c(C(F)(F)F)c1)C2` (centres unmarked) [Example 23, ethyl 3-[(2-{[4-fluoro-3-(trifluoromethyl)phenyl]-formamido}ethyl)amino]-8-azabicyclo[3.2.1]octane-8-carboxylate], the Emax amounted to 47%. Besides, the concentration for a half-maximal effect (EC50) under setting [1] came to 2720 nM. Take `CCOC(=O)N1C2CCC1CC(NCCNC(=O)c1ccc(F)cc1F)C2` (centres unmarked) [Example 6, ethyl 3-({2-[(2,4-difluorophenyl)formamido]-ethyl}amino)-8-azabicyclo[3.2.1]octane-8-carboxylate]: the concentration for a half-maximal effect (EC50) came to 72 nM and the Emax was 82%. Take `CCOC(=O)N1C2CCC1CC(NCCNC(=O)c1ccc(C)c(F)c1)C2` (centres unmarked) [Example 13, ethyl 3-({2-[(3-fluoro-4-methylphenyl)formamido]-ethyl}amino)-8-azabicyclo[3.2.1]octane-8-carboxylate]: the Emax amounted to 50%. The EC50 under setting [1] came out at 631 nM. Regarding `CCOC(=O)N1C2CCC1CC(NCCNC(=O)c1ccco1)C2` (centres unmarked) [Example 14, ethyl 3-{[2-(furan-2-ylformamido)ethyl]-amino}-8-azabicyclo[3.2.1]octane-8-carboxylate], the Emax was found to be 24%.

As to `CCOC(=O)N1C2CCC1CC(NCCNC(=O)c1ccc(Cl)c(Cl)c1)C2` (centres unmarked) [Example 10, ethyl 3-({2-[(3,4-dichlorophenyl)formamido]-ethyl}amino)-8-azabicyclo[3.2.1]octane-8-carboxylate], the Emax was 49%. Further, under setting [1], the 50% effective concentration (EC50) came to 1020 nM. For the compound `CCOC(=O)N1C2CCC1CC(NCCNC(=O)c1ccc(F)c(OC)c1)C2` (centres unmarked) [Example 22, ethyl 3-({2-[(4-fluoro-3-methoxyphenyl)formamido]-ethyl}amino)-8-azabicyclo[3.2.1]octane-8-carboxylate], the Emax amounted to 12%. Further, under setting [1], the concentration giving a half-maximal response (EC50) was 1460 nM. For `CCOC(=O)N1C2CCC1CC(NCCNC(=O)c1ccc(C)c(C)c1)C2` (centres unmarked) [Example 11, ethyl 3-({2-[(3,4-dimethylphenyl)formamido]-ethyl}amino)-8-azabicyclo[3.2.1]octane-8-carboxylate], the Emax stood at 48%. As to `CCOC(=O)N1C2CCC1CC(NCCNC(=O)c1ccc(F)cc1Cl)C2` (centres unmarked) [Example 7, ethyl 3({2-[(2-chloro-4-fluorophenyl)formamido]-ethyl}amino)-8-azabicyclo[3.2.1]octane-8-carboxylate], the half-maximal effective concentration (EC50) was found to be 96 nM and the Emax came out at 95%. As for `CCOC(=O)N1C2CCC1CC(NCCNC(=O)c1cccc(C)c1)C2` (centres unmarked) [Example 9, ethyl 3-({2-[(3-methylphenyl)formamido]-ethyl}amino)-8-azabicyclo[3.2.1]octane-8-carboxylate], the Emax was found to be 103%. For the same compound, the EC50 under setting [1] turned out to be 115 nM.

Take `CCOC(=O)N1C2CCC1CC(NCCNC(=O)Cc1ccccc1)C2` (centres unmarked) [Example 19, ethyl 3-{[2-(2-phenylacetamido)ethyl]-amino}-8-azabicyclo[3.2.1]octane-8-carboxylate]: the Emax is 33%. For the compound `CCOC(=O)N1C2CCC1CC(NCCNC(=O)c1ccccc1F)C2` (centres unmarked) [Example 2, Ethyl 3-(2-(2-fluorobenzamido)ethylamino)-8-azabicyclo[3.2.1]octane-8-carboxylate], the EC50 is 69 nM and the Emax was found to be 103%. For the compound `CCOC(=O)N1C2CCC1CC(NCCNC(=O)c1ccc(Cl)cc1)C2` (centres unmarked) [Example 24], the Emax came to 25%. The half-maximal effective concentration (EC50) under setting [1] turned out to be 1070 nM. With `CCOC(=O)N1C2CCC1CC(NCCNC(=O)c1ccc(C)cc1)C2` (centres unmarked) [Example 8, ethyl 3-({2-[(4-methylphenyl)formamido]-ethyl}amino)-8-azabicyclo[3.2.1]octane-8-carboxylate], the Emax amounted to 47%. Turning to `CCOC(=O)N1C2CCC1CC(NCCNC(=O)c1ccccc1C)C2` (centres unmarked) [Example 3, ethyl 3-({2-[(2-methylphenyl)formamido]-ethyl}amino)-8-azabicyclo[3.2.1]octane-8-carboxylate], the half-maximal effective concentration (EC50) stood at 85 nM and the Emax turned out to be 81%. As for `CCOC(=O)N1C2CCC1CC(NCCNC(=O)Cc1cccs1)C2` (centres unmarked) [Example 20, ethyl 3-({2-[2-(thiophen-2-yl)acetamido]ethyl}-amino)-8-azabicyclo[3.2.1]octane-8-carboxylate], the Emax turned out to be 51%.

A word on the EC50: it is the midpoint of the concentration-response curve.

(Values after US8697691B2, “Alkyl 3-((2-amidoethyl)amino)-8-azabicyclo[3.2.1]octane-8-carboxylate analogs as selective M1 agonists and methods of making and using same” (Vanderbilt University, priority 2009, dated 2014).)
